Laboratory results taken from patent US11260049B2, “TRPV4 antagonists” (GlaxoSmithKline Intellectual Property (No. 2) Limited, priority 2016, dated 2022).

Molecular target: human TRPV4 (Homo sapiens (Human), UniProt Q9HBA0)
Test: FLIPR assay for hTRPV4 expressed in BHK cells
Type: cell-based
Conditions: inhibition of Agonist Compound (EC80)-induced calcium signal; BHK/AC9 cells expressing human TRPV4; read-out: IC50
Protocol: FLIPR Assay for hTRPV4 Expressed in BHK Cells:
TRPV4 channel activation results in an influx of divalent and monovalent cations including calcium. The resulting changes in intracellular calcium were monitored using a calcium specific fluorescent dye Fluo-4 (MDS Analytical Technologies). BHK/AC9 cells transduced with BacMam virus expressing the human TRPV4 gene at a MOI of 78 were plated in a 384 well poly-D lysine coated plate (15,000 cells/well in 50 μL culture medium containing DMEM/F12 with 15 mM HEPES, 10% FBS, 1% Penicillin-Streptomycin and 1% L-glutamine). Cells were incubated for 24 hours at 37° C. and 5% CO2. Culture medium was then aspirated using a Tecan plate-washer and replaced with 20 μL/well of dye loading buffer: HBSS, 500 μM Brilliant Black (MDS Analytical Technologies), and 2 μM Fluo-4 AM. Dye loaded plates were then incubated in the dark at room temperature for 1˜1.5 hours.

human TRPV4, sequence (Q9HBA0 whole entry): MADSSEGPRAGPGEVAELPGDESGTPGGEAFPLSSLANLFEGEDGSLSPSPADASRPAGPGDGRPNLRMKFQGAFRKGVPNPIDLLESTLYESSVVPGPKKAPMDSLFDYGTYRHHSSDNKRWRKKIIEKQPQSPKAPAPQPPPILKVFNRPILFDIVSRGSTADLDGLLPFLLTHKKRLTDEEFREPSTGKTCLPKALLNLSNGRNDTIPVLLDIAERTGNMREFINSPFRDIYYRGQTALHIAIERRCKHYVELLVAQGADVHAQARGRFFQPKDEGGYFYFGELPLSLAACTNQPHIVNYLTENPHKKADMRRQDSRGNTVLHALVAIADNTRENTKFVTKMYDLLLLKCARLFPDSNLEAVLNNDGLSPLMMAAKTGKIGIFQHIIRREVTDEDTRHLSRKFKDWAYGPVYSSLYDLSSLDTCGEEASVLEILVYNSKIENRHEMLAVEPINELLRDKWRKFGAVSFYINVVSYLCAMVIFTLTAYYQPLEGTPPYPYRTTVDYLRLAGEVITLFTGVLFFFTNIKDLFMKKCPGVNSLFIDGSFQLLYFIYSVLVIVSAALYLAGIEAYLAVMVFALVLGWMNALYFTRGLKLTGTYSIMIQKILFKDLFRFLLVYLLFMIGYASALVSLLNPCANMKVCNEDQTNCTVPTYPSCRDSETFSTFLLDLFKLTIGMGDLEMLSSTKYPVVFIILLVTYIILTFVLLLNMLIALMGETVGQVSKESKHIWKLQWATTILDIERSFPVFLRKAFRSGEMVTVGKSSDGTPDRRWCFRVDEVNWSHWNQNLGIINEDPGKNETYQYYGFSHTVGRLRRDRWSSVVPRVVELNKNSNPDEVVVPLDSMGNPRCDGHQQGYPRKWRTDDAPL

Compound | IC50 [nM]
N#Cc1ccc(S(=O)(=O)[C@H]2CN(S(=O)(=O)c3ccc(C#N)cc3Cl)C[C@@]2(O)CO)cc1 [Example 45, 3-chloro-4-(((3R,4S)-4-((4-cyanophenyl)sulfonyl)-3-hydroxy-3-(hydroxymethyl)pyrrolidin-1-yl)sulfonyl)benzonitrile] | 0.1 to 10
CCc1cc(C#N)ccc1S(=O)(=O)N1C[C@H](S(=O)(=O)c2ccc(Cl)cc2)[C@](O)(CO)C1 [Example 46, 4-(((3R,4S)-4-((4-chlorophenyl)sulfonyl)-3-hydroxy-3-(hydroxymethyl)pyrrolidin-1-yl)sulfonyl)-3-ethylbenzonitrile] | 10 to 100
N#Cc1ccccc1S(=O)(=O)N1C[C@H](S(=O)(=O)c2ccc(Cl)cc2)[C@](O)(CO)C1 [Example 47, 2-(((3R,4S)-4-((4-chlorophenyl)sulfonyl)-3-hydroxy-3-(hydroxymethyl)pyrrolidin-1-yl)sulfonyl)benzonitrile] | 10 to 100
N#Cc1ccc(S(=O)(=O)N2C[C@H](S(=O)(=O)c3ccc(Cl)cc3)[C@](O)(CO)C2)c(C(F)F)c1 [Example 48, 4-(((3R,4S)-4-((4-chlorophenyl)sulfonyl)-3-hydroxy-3-(hydroxymethyl)pyrrolidin-1-yl)sulfonyl)-3-(difluoromethyl)benzonitrile] | 0.1 to 10
CCOc1cc(C#N)ccc1S(=O)(=O)N1C[C@H](S(=O)(=O)c2ccc(Cl)cc2)[C@](O)(CO)C1 [Example 49, 4-(((3R,4S)-4-((4-chlorophenyl)sulfonyl)-3-hydroxy-3-(hydroxymethyl)pyrrolidin-1-yl)sulfonyl)-3-ethoxybenzonitrile] | 10 to 100
N#Cc1ccc(S(=O)(=O)N2C[C@H](S(=O)(=O)c3ccc(Cl)cc3)[C@](O)(CO)C2)c(OC2CC2)c1 [Example 50, 4-(((3R,4S)-4-((4-chlorophenyl)sulfonyl)-3-hydroxy-3-(hydroxymethyl)pyrrolidin-1-yl)sulfonyl)-3-cyclopropoxybenzonitrile] | 10 to 100
COc1cc(Cl)ccc1S(=O)(=O)N1C[C@H](S(=O)(=O)c2ccc(C#N)cc2)[C@](O)(CO)C1 [Example 51, 4-(((3S,4R)-1-((4-chloro-2-methoxyphenyl)sulfonyl)-4-hydroxy-4-(hydroxymethyl)pyrrolidin-3-yl)sulfonyl)benzonitrile] | 10 to 100
COc1cc(Br)ccc1S(=O)(=O)N1C[C@H](S(=O)(=O)c2ccc(C#N)cc2)[C@](O)(CO)C1 [Example 52, 4-(((3S,4R)-1-((4-bromo-2-methoxyphenyl)sulfonyl)-4-hydroxy-4-(hydroxymethyl)pyrrolidin-3-yl)sulfonyl)benzonitrile] | 10 to 100
N#Cc1ccccc1S(=O)(=O)N1C[C@H](S(=O)(=O)c2ccc(C(F)(F)F)cc2)[C@](O)(CO)C1 [Example 53, 2-(((3R,4S)-3-hydroxy-3-(hydroxymethyl)-4-((4-(trifluoromethyl)phenyl)sulfonyl)pyrrolidin-1-yl)sulfonyl)benzonitrile] | 10 to 100
N#Cc1ccc(S(=O)(=O)N2C[C@H](S(=O)(=O)c3ccc(C(F)(F)F)cc3)[C@](O)(CO)C2)c(Cl)c1 [Example 54, 3-chloro-4-(((3R,4S)-3-hydroxy-3-(hydroxymethyl)-4-((4-(trifluoromethyl)phenyl)sulfonyl)pyrrolidin-1-yl)sulfonyl)benzonitrile] | 0.1 to 10
N#Cc1ccc(S(=O)(=O)N2C[C@H](S(=O)(=O)c3ccc(C(F)(F)F)cc3)[C@](O)(CO)C2)c(C(F)F)c1 [Example 55, 3-(difluoromethyl)-4-(((3R,4S)-3-hydroxy-3-(hydroxymethyl)-4-((4-(trifluoromethyl)phenyl)sulfonyl)pyrrolidin-1-yl)sulfonyl)benzonitrile] | 0.1 to 10
COc1cc(C#N)ccc1S(=O)(=O)N1C[C@H](S(=O)(=O)c2ccc(C(F)(F)F)cc2)[C@](O)(CO)C1 [Example 56, 4-(((3R,4S)-3-hydroxy-3-(hydroxymethyl)-4-((4-(trifluoromethyl)phenyl)sulfonyl)pyrrolidin-1-yl)sulfonyl)-3-methoxybenzonitrile] | 10 to 100
N#Cc1ccc(S(=O)(=O)N2C[C@H](S(=O)(=O)c3ccc(C(F)(F)F)cc3)[C@](O)(CO)C2)c(OC2CC2)c1 [Example 57, 3-cyclopropoxy-4-(((3R,4S)-3-hydroxy-3-(hydroxymethyl)-4-((4-(trifluoromethyl)phenyl)sulfonyl)pyrrolidin-1-yl)sulfonyl)benzonitrile] | 10 to 100
Cc1ccc(S(=O)(=O)N2C[C@H](S(=O)(=O)c3ccc(C#N)cc3)[C@](O)(CO)C2)c(Cl)c1 [Example 58, 4-(((3S,4R)-1-((2-chloro-4-methylphenyl)sulfonyl)-4-hydroxy-4-(hydroxymethyl)pyrrolidin-3-yl)sulfonyl)benzonitrile] | 10 to 100
N#Cc1ccc(S(=O)(=O)[C@H]2CN(S(=O)(=O)c3ccc(Cl)cc3Br)C[C@@]2(O)CO)cc1 [Example 59, 4-(((3S,4R)-1-((2-bromo-4-chlorophenyl)sulfonyl)-4-hydroxy-4-(hydroxymethyl)pyrrolidin-3-yl)sulfonyl)benzonitrile] | 0.1 to 10
COc1ccc(S(=O)(=O)N2C[C@H](S(=O)(=O)c3ccc(C#N)cc3)[C@](O)(CO)C2)c(Br)c1 [Example 60, 4-(((3S,4R)-1-((2-bromo-4-methoxyphenyl)sulfonyl)-4-hydroxy-4-(hydroxymethyl)pyrrolidin-3-yl)sulfonyl)benzonitrile] | 10 to 100
N#Cc1ccc(S(=O)(=O)N2C[C@H](S(=O)(=O)c3ccc(C(F)(F)F)cn3)[C@](O)(CO)C2)c(OC2CC2)c1 [Example 61, 3-cyclopropoxy-4-(((3R,4S)-3-hydroxy-3-(hydroxymethyl)-4-((5-(trifluoromethyl)pyridin-2-yl)sulfonyl)pyrrolidin-1-yl)sulfonyl)benzonitrile] | 10 to 100
N#Cc1ccc(S(=O)(=O)[C@H]2CN(S(=O)(=O)c3ccc(F)cc3Cl)C[C@@]2(O)CO)cc1 [Example 62, 4-(((3S,4R)-1-((2-chloro-4-fluorophenyl)sulfonyl)-4-hydroxy-4-(hydroxymethyl)pyrrolidin-3-yl)sulfonyl)benzonitrile] | 10 to 100
N#Cc1ccc(S(=O)(=O)[C@H]2CN(S(=O)(=O)c3cc(F)c(Cl)cc3Cl)C[C@@]2(O)CO)cc1 [Example 63, 4-(((3S,4R)-1-((2,4-dichloro-5-fluorophenyl)sulfonyl)-4-hydroxy-4-(hydroxymethyl)pyrrolidin-3-yl)sulfonyl)benzonitrile] | 10 to 100
COC(=O)c1ccc(S(=O)(=O)[C@H]2CN(S(=O)(=O)c3ccc(Cl)cc3C(F)F)C[C@@]2(O)CO)cc1 [Example 64] | 10 to 100
O=S(=O)(c1ccc(Cl)cc1)[C@H]1CN(S(=O)(=O)c2ccc(Cl)cc2C(F)F)C[C@@]1(O)CO [Example 65, (3R,4S)-1-((4-chloro-2-(difluoromethyl)phenyl)sulfonyl)-4-((4-chlorophenyl)sulfonyl)-3-(hydroxymethyl)pyrrolidin-3-ol] | 10 to 100
N#CCc1cc(Cl)ccc1S(=O)(=O)N1C[C@H](S(=O)(=O)c2ccc(Cl)cc2)[C@](O)(CO)C1 [Example 66, 2-(5-chloro-2-(((3R,4S)-4-((4-chlorophenyl)sulfonyl)-3-hydroxy-3-(hydroxymethyl)pyrrolidin-1-yl)sulfonyl)phenyl)acetonitrile] | 10 to 100
